Results: ChEMBL document CHEMBL5576154, “Targeted suppression of oral squamous cell carcinoma by pyrimidine-tethered quinoxaline derivatives” (RSC Med Chem, 2024)

How the values were obtained:
Pyruvate kinase PKM = Pyruvate kinase PKM (Homo sapiens, UniProt P14618); assay: Activation of PKM2 (unknown origin) by LDH enzyme coupled assay
[1] = Antiproliferative activity against OSCC (unknown origin); type: functional, cell-based; details: Oral cancer cell
[2] = Cytotoxicity against normal epithelial cells (unknown origin) incubated for 24 hrs by Alamar blue assay; type: toxicity, cell-based, Epithelial cell
CAL-27 [3] = assay: Cytotoxicity against human CAL-27 cells incubated for 24 hrs by Alamar blue assay; details: CAL-27, 24 h
CAL-27 [4] = assay: Induction of apoptosis in human CAL-27 cells assessed as viable cells at IC50 concentration incubated for 24 hrs by Annexin V-FITC/PI staining based flow cytometry analysis (reference value: 97.36%); type: functional
[5] = biological target: Vascular endothelial growth factor receptor 2 (Homo sapiens, UniProt P35968); assay: Inhibition of human VEGFR2 by ELISA
Sequence of Vascular endothelial growth factor receptor 2 (P35968 whole entry): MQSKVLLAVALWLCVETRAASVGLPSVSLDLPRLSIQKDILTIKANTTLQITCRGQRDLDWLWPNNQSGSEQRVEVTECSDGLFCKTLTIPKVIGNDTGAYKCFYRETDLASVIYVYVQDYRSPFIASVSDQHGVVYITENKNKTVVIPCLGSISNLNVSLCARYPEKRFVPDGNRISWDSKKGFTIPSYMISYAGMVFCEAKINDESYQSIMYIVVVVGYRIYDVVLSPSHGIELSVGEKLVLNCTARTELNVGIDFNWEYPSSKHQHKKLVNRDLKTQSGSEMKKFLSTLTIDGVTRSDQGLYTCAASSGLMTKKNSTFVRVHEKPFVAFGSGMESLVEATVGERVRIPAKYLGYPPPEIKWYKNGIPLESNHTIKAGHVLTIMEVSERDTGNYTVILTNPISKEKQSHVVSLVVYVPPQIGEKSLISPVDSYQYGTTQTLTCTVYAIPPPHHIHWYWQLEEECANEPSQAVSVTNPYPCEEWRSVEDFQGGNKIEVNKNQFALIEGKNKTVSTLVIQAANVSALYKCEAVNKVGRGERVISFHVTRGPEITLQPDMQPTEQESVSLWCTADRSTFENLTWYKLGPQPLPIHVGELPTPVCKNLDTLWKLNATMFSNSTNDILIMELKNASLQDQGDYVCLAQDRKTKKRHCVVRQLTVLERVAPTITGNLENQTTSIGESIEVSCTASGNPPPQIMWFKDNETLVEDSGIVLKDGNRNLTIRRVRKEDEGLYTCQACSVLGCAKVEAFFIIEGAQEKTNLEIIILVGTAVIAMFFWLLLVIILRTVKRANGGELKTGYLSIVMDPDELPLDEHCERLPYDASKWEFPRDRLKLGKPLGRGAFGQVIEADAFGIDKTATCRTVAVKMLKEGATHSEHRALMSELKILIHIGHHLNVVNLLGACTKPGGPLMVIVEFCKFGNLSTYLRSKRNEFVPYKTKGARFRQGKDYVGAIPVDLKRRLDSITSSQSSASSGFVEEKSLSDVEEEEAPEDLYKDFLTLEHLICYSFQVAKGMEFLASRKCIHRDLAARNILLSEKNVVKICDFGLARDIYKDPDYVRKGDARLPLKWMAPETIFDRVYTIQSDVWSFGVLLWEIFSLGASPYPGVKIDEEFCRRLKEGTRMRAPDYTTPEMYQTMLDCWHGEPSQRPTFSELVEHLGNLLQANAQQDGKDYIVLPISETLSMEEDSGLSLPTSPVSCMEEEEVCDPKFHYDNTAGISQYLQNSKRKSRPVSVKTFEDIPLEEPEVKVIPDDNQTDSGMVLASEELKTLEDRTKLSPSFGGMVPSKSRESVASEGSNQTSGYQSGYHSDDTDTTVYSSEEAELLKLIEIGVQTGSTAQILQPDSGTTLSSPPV

Sequence of Pyruvate kinase PKM (P14618 whole entry): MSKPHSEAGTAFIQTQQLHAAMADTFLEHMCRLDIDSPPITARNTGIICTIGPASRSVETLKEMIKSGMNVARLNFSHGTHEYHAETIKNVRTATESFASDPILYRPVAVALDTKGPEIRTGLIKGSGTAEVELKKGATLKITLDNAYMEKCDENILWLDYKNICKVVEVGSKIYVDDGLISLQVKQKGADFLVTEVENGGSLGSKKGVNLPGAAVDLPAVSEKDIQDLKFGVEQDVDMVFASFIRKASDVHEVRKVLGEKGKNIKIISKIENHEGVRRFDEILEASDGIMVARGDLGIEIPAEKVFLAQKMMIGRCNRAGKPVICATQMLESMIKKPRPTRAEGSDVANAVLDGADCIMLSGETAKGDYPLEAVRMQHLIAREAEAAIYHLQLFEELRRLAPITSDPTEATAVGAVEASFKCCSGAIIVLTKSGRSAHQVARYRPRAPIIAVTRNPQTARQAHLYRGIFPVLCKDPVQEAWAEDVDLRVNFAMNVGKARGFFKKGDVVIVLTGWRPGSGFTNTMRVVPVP

Row | Structure (SMILES) | IC50 at 24 h [2] [µM] | IC50 (CAL-27 [3]) [µM] | also measured
1 | O=S(=O)(c1ccc2c(c1)OCCO2)N1CCN(S(=O)(=O)c2c(F)cccc2F)CC1 |  |  | EC50 (Pyruvate kinase PKM): 0.241 µM
2 | COc1ccc(OC)c(C(=O)/C=C/c2ccc3nccnc3c2)c1 |  |  | IC50 [1]: 7.81 µM
3 | Clc1cc2ncc(-c3cnc4ncccn34)nc2cc1Cl | 15.8 | 25.3 | 
4 | O=C(c1ccccc1)c1ccc2ncc(-c3cnc4ccccn34)nc2c1 | 24.9 | 14.6 | 
5 | c1ccc2nc(-c3cnc4ccccn34)cnc2c1 |  | > 100 | 
6 | FC(F)(F)c1ccc(-c2ccn3c(-c4cnc5ccccc5n4)cnc3n2)cc1 |  | > 100 | 
7 | Cc1ccc(-c2ccn3c(-c4cnc5ccccc5n4)cnc3n2)cc1 |  | 64.8 | 
8 | c1ccc2nc(-c3cnc4ncccn34)cnc2c1 |  | > 100 | 
9 | CS(=O)(=O)c1ccc(-c2ccn3c(-c4cnc5ccccc5n4)cnc3n2)cc1 |  | > 100 | 
10 | Brc1ccc2ncc(-c3cnc4ncccn34)nc2c1 | 15.2 | 21.6 | 
11 | Clc1ccc(-c2ccn3c(-c4cnc5ccccc5n4)cnc3n2)cc1 |  |  | Activity (CAL-27 [4]): 79.07%
12 | Clc1ccc2ncc(-c3cnc4ncccn34)nc2c1 |  | > 100 | 
13 | Clc1ccc2ncc(-c3cnc4ccccn34)nc2c1 | 19.2 | 12.8 | 
14 | Cc1nc2ccccc2n(CC(=O)Nc2ccc(C(=O)Nc3cccc(Cl)c3)cc2)c1=O |  |  | IC50 [5]: 0.0027 µM
15 | Clc1ccccc1-c1ccn2c(-c3cnc4ccccc4n3)cnc2n1 | 133 | 13.7 | 
16 | O=C(c1ccccc1)c1ccc2ncc(-c3cnc4ncccn34)nc2c1 | 16.7 | 17 | 
17 | Cc1ccc2ncc(-c3cnc4ccccn34)nc2c1 | 22.5 | 18.5 | 
18 | O=[N+]([O-])c1ccc2ncc(-c3cnc4ccccn34)nc2c1 | 20.8 | 27.2 | 
19 | c1ccc(-c2ccn3c(-c4cnc5ccccc5n4)cnc3n2)cc1 | 47.5 | 10.3 | 
20 | Fc1ccc(-c2ccn3c(-c4cnc5ccccc5n4)cnc3n2)cc1 |  | > 100 | 
21 | Fc1ccccc1-c1ccn2c(-c3cnc4ccccc4n3)cnc2n1 |  | > 100 | 
22 | Fc1ccc2ncc(-c3cnc4ncccn34)nc2c1 |  | > 100 | 
23 | Clc1ccc(-c2ccn3c(-c4cnc5ccccc5n4)cnc3n2)c(Cl)c1 |  | > 100 | 
24 | Fc1ccc2ncc(-c3cnc4ccccn34)nc2c1 |  | > 100 | 
25 | Clc1cc2ncc(-c3cnc4ccccn34)nc2cc1Cl | 23.9 | 15.1 | 
26 | Brc1ccc2ncc(-c3cnc4ccccn34)nc2c1 | 20.9 | 16 | 
27 | O=[N+]([O-])c1ccc2ncc(-c3cnc4ncccn34)nc2c1 | 18.3 | 19.7 | 
28 | Cc1ccc2ncc(-c3cnc4n3C=C=C=N4)nc2c1 |  | > 100 | 
